Values joined by “and” are separate entries in the source; they are usually repeats but may differ in a detail not shown here. Equal values may be shown once. Read-outs that look alike come from different tables or passages of the source.
Experiments:
[1] = tested on: MEC1 cells; assay: Cell proliferation XTT assay, MEC1; format: cell-based, human; settings: MEC1, 50 μM, first 48 h
Protocol: (§1) Eμ-TCL1, MEC1, MEC2, WaC3, or primary human CLL cells were grown in 96-well cell culture plates overnight and then treated with fresh phenol red-free culture medium containing STF-083010 (50 μM), A-I06 (50 μM), A-I07 (50 μM) or fludarabine (30 μM). […] Briefly, 50 μl XTT labeling reagent was combined with 100 μl electron-coupling reagent, and the mixture was applied to each well of the 96-well plates. The test was based on cleavage of the yellow tetrazolium salt XTT by mitochondrial dehydrogenases of the metabolic active cells to form the orange formazan compound, which can be spectrophotometrically quantified at 492 nm using a BioTek microplate reader.

[2] = tested on: MEC2 cells; assay: Cell proliferation XTT assay, MEC2; format: cell-based, human; settings: MEC2, 50 μM, first 48 h
Protocol: as §1

[3] = tested on: WaC3 cells; assay: Cell proliferation XTT assay, WaC3; format: cell-based, human; settings: for growth response (in words): WaC3, 50 μM, course of 4 days
Protocol: as §1

[4] = tested on: XBP-1s expression; assay: Inhibition of XBP-1s expression in LPS-stimulated mouse B cells (immunoblots); format: cell-based; settings: for inhibition of XBP-1s expression (in words): LPS 48 h, then inhibitor 20 μM for 24 h (Example 3 prints 20 mM); for inhibition of XBP-1 expression (in words): inhibitor 50 μM (b479 prints 50 mM), also Eμ-TCL1 CLL and WaC3 cells
Protocol: The protein concentrations of the supernatants were determined by BCA assay (Pierce). […] Proteins were transferred to nitrocellulose membranes, blocked in 5% milk (wt/vol in PBS), and immunoblotted with the indicated antibodies and appropriate horseradish peroxidase-conjugated secondary antibodies. Following multiple washes in PBS, the blots were developed using Western Lighting Chemiluminescence Reagent (Perkin-Elmer).
Protein concentrations were determined by BCA assays (Pierce). […] Proteins were transferred to nitrocellulose membranes, blocked in 5% non-fat milk (wt/vol in PBS), and immunoblotted with indicated primary antibodies and appropriate horseradish peroxidase-conjugated secondary antibodies. Immunoblots were developed using Western Lighting Chemiluminescence Reagent (Perkin-Elmer).

[5] = tested on: primary human CLL cells; assay: Cell proliferation XTT assay, primary human CLL cells; format: cell-based; settings: primary human CLL cells, 50 μM, 3 days
Protocol: as §1

[6] = target: recombinant hIRE-1 (Homo sapiens (Human), UniProt O75460); assay: In vitro IRE-1 RNase FRET-suppression assay; format: biochemical
Protocol: Fluorescence was read at various time points using a Biotek Synergy H1 plate reader with excitation and emission at 620 nm and 680 nm, respectively. […] All fluorescence readings were corrected using background values from wells containing only 120 μL of 50 nM XBP-1 RNA.
Fluorescence was read at various time points using a Biotek Synergy H1 plate reader with excitation and emission at 620 nm and 680 nm, respectively. […] All fluorescence readings were corrected using background values from wells containing only 120 mL of 50 nM XBP-1 RNA.

[7] = tested on: Eμ-TCL1 CLL cells; assay: Cell proliferation XTT assay, Eμ-TCL1 CLL cells; format: cell-based, mouse; settings: 50 μM, after 3 days
Protocol: as §1

[8] = tested on: Eμ-TCL1 CLL cells; assay: Annexin V/DAPI flow cytofluorometry of cultured Eμ-TCL1 CLL cells; format: cell-based, mouse; settings: 50 μM or 100 μM for 24 h
Protocol: PBMCs were non-lethally obtained from mice following the submandibular bleed and RBC lysis (Qiagen). Nonspecific staining was first blocked for 30 min at 4° C. with 300 μl FBS per 1.0×10^6 cells. Cell surface staining was accomplished by 30-min incubation at 4° C. with 1 μl per 1.0×10^6 cells of the following anti-mouse antibodies: B220-Alexa488, CD19-APC-Cy7 (BD Pharmingen), IgM-Alexa568 (Invitrogen), CD5-APC (eBioscience) and CD138-PE (BD Pharmingen). Viability staining was accomplished using DAPI exclusion (10 μg/ml; 200 μl/1×10^6 cells) during acquisition. Apoptotic cells were detected by Annexin V-PE staining (BD Pharmingen). Acquisition of B-cell and CLL cell populations was performed on a LSRII cytometer (BD Biosciences) harboring a custom configuration for the H. Lee Moffitt Cancer Center & Research Institute, having multiple laser beams and detectors for excitation of various fluorophores and wide emission spectrum detection. Mid-range Spherotech FL1 fluorescent rainbow beads (BD Biosciences) were used to maintain consistent gains for all parameters across time points. Analysis of cytometry data was achieved using FlowJo software version 7.6.1 (Tree Star Inc.).

[9] = tested on: Eμ-TCL1 mice with high CLL burden; format: in vivo; settings: A-I06 60 mg/kg i.p.
Protocol: Older Eμ-TCL1 mice (age >8 months) with high CLL burden in the peripheral blood were identified by examining the percentage of CLL cells in PBMCs. These mice then received intraperitoneal injections with A-I06 (60 mg/kg) dissolved in Cremophor® ELP (vehicle, Sigma). The progression of CLL was monitored by flow cytofluorometry.

[10] = Degradation (chemical stability) studies by HPLC/LCMS; format: physicochemical; settings: over 12 hours, rt
Protocol: The degradation of analog 24 was plotted as a function of time upon exposure to FRET-suppression assay buffer at rt. Aliquots were partitioned with MeOH and injected onto LCMS (UV monitored at 320 nm) and peaks integrated relative to internal standard.
A 20 mM stock solution of B-I09 in DMSO was diluted to 0.5 mM in FRET assay buffer (20 mM HEPES, pH 7.5, 50 mM KOAc, 0.5 mM MgCl2, 3 mM DTT, 0.4% PEG) or cell culture media (RPMI supplemented with 10% fetal bovine serum). The FRET assay buffer and cell culture media solutions were incubated at room temperature and 37° C., respectively. At various time points, a 50 μL aliquot of each solution was added to 50 μL of methanol and the mixture analyzed by analytical reverse-phase HPLC (C18 4 mm×150 mm column, 1 mL/min flow rate) with acetonitrile/water (0.1% formic acid) as eluent. Absorbance was read at 320 nm and the degradation product (aldehyde) was identified by LCMS and co-injection with pure synthetic sample. Degradation studies were carried out in duplicate and data points reported as the mean of two values.

[11] = tested on: XBP-1 mRNA splicing; assay: XBP-1 mRNA splicing by RT-PCR; format: cell-based; settings: human WaC3 CLL cells, 24 h
Description: Total RNA was isolated using TRIzol reagent (Invitrogen). Complementary DNA was synthesized from RNA using Superscript II reverse transcriptase (Invitrogen).

[12] = Aqueous solubility (stated in words); format: physicochemical
[13] = STF-083010 stability studies by RP-HPLC; format: physicochemical
Protocol: STF-083010 stability studies were performed using analytical reverse-phase high pressure liquid chromatography (RP-HPLC) with a C18 column (4 mm×150 mm) and a 10-90% linear gradient of acetonitrile in water (containing 0.1% formic acid) as eluent over 20 minutes (1 ml/min flow rate). Compounds were detected at λ=254 nm. Crystalline STF-083010 was analyzed on a standard Bruker X8 Apex2 CCD-based X-ray diffractometer, and the solid-state structure was solved and refined with the Bruker SHELXTL (version 6.12) software package. Diffraction data (excluding structure factors) for STF-083010 have been deposited with the Cambridge Crystallographic Data Centre as supplementary CCDC publication number 850879.

[14] = text values of Example 3, unit printed as mM, read-out: IC50 in FRET-suppression assay

recombinant hIRE-1, sequence (O75460 547-977): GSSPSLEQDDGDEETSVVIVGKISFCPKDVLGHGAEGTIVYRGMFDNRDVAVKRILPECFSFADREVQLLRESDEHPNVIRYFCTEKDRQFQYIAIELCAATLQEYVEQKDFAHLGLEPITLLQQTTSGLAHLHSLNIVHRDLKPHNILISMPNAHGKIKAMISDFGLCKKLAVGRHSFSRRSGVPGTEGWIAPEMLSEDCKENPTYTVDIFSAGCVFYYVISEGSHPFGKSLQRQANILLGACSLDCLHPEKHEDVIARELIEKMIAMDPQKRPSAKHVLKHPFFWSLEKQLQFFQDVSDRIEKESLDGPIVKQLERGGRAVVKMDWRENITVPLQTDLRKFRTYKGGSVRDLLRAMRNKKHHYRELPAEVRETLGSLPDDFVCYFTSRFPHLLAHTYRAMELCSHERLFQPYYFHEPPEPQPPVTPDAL

O=Cc1c(O)ccc2ccccc12 [A-I06, 2-hydroxynaphthaldehyde]
growth inhibition [1]: ~20%
growth inhibition [2]: ~20%
growth response (in words) [3]: gradually decreased growth
GI50 ([3]; read-out: GI50 (50% growth inhibition concentration), WaC3 cells, 48 h, XTT): ~50 µM
inhibition of XBP-1s expression (in words) [4]: requires a higher concentration to achieve complete inhibition
inhibition of XBP-1 expression (in words) [4]: can suppress the expression of XBP-1
inhibition of XBP-1 expression (in words) ([4]; listed as 2): strong inhibition
cytotoxic effect (in words) [5]: significant cytotoxic effect
IRE-1 RNase inhibitory activity in FRET-suppression assay (in words) [6]: weaker activity
IC50 [6, 14]: 9.73 mM
growth inhibition [7]: ~70%
apoptosis (in words) [8]: Increased apoptosis
apoptosis of CD5+/B220+ CLL cells in treated mice (in words) [9]: increase of Annexin V+ apoptotic CD5+/B220+CLL cells
apoptosis of CD5−/B220+ B cells in treated mice (in words) [9]: does not induce CD5−/B220+ B cells to undergo apoptosis
CLL burden (in words) ([9]; Day 0, 1, 12, 13): reduced CLL burden

O=Cc1c(O)ccc2ccccc12 [A-I07]
IRE-1 RNase inhibitory activity in FRET-suppression assay (in words) [6]: no appreciable inhibition at 20 mM

O=S(=O)(NCc1c(O)ccc2ccccc12)c1cccs1 [B-A05]
inhibition of XBP-1 expression (in words) [4]: did not significantly alter XBP-1 expression

Cc1cc(=O)oc2c(C=O)c(O)ccc12 [Compound 4μ8C, 7-hydroxy-4-methyl-2-oxo-2H-chromene-8-carbaldehyde]
inhibition of XBP-1s expression (in words) [4]: strong inhibition
IC50 ([6]; 5 nM hIRE-1, 50 nM XBP-1 RNA, read-out: IC50 in FRET-suppression assay): 0.000155 mM and 0.000206 mM

C=CCOC(=O)N1CCc2c(c(=O)oc3c(C=O)c(O)ccc23)C1 [Compound 21b, Allyl 7-formyl-8-hydroxy-5-oxo-4,5-dihydro-1H-chromeno[3,4-c]pyridine-3(2H)-carboxylate]
IC50 ([4]; Mus musculus, B-cell, LPS-stimulated B cells, 24 h, immunoblots, densitometry, approximate, read-out: IC50 for suppressing XBP-1s expression): ~5.1 µM

C=CCOC(=O)N1CCc2c(c(=O)oc3c(C4OCCCO4)c(O)ccc23)C1 [Compound 24, allyl 7-(1,3-dioxan-2-yl)-8-hydroxy-5-oxo-4,5-dihydro-1H-chromeno[3,4-c]pyridine-3(2H)-carboxylate]
decomposition of the 1,3-dioxane moiety in assay buffer (in words) [10]: no significant decomposition
inhibition of splicing of XBP-1 mRNA (in words) [11]: highly effective

C=CCOC(=O)N1CCc2c(c(=O)oc3c(C=O)c(OCc4ccccc4)ccc23)C1 [Compound 27, allyl 7-formyl-8-benzyloxy-5-oxo-4,5-dihydro-1H-chromeno[3,4-c]pyridine-3(2H)-carboxylate]
IRE-1 RNase inhibitory activity in FRET-suppression assay (in words) [6]: complete loss of potency below 20 mM
IC50 ([6]; In vitro IRE-1 RNase inhibition by analogs of 21b, FRET-suppression assay, read-out: IC50): > 0.02 mM

N=C(N)N1CCc2c(c(=O)oc3c(C=O)c(O)ccc23)C1 [Compound 34, 7-Formyl-8-hydroxy-5-oxo-4,5-dihydro-1H-chromeno[3,4-c]pyridine-3(2H)-carboximidamide]
solubility (in words) [12]: solubility decreased
inhibition of XBP-1s expression (in words) [4]: did not effectively inhibit XBP-1s expression

O=S(=O)(N=Cc1c(O)ccc2ccccc12)c1cccs1 [STF-083010]
growth inhibition [1]: ~20%
growth inhibition [2]: ~20%
growth response (in words) [3]: gradually decreased growth
inhibition of XBP-1 expression (in words) [4]: can suppress the expression of XBP-1
cytotoxic effect (in words) [5]: significant cytotoxic effect
IC50 [6, 14]: 9.94 mM
growth inhibition [7]: ~70%
stability in 1:1 DMSO:water mixture (in words) ([13]; brief exposure): complete decomposition
stability of DMSO stock solutions (in words) ([13]; repeated freeze-thaw cycles): readily hydrolyzed into precursors A-I06 and A-I07
